Measured values: the supplement of paper PMC10307832

Compound: Cc1nc(C(=O)NCC(=O)O)c(O)c2ccc(Oc3ccccc3)cc12 [FG-4592] + N=C(N)NC(=N)NCCc1ccccc1 [Phenformin] (partner 250 µM)
Test: relative viability (nuclei count vs DMSO), 5 days (fraction); higher = more cells survive
Conditions: first compound 0.08 µM
Summary of the method: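 Relative viability is defined as nuclei in treated wells over nuclei in vehicle wells. Duplicate plates were run and medians reported. Lung cancer cell lines in 1536-well plates were dosed by pin tool one day after seeding, with one drug or with a fixed anchor-drug dose plus five library-drug doses (not always all listed) in √10 steps, and nuclei were counted after 5 days.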

Row | Cell Line | relative viability
1 | NCI-H2405 | 0.282
2 | HOP-62 | 0.601
3 | HCC-44 | 0.107
4 | SW 900 | 0.584
5 | LU99A | 0.839
6 | BEN | 0.234
7 | HARA | 0.412
8 | HCC-78 | 0.683
9 | NCI-H322M | 0.597
10 | LCLC-97TM1 | 0.415
11 | NCI-H2009 | 0.502
12 | A-427 | 0.27
13 | NCI-H441 | 0.876
14 | NCI-H661 | 0.271
15 | NCI-H1734 | 0.398
16 | NCI-H460 | 0.538
17 | NCI-H2347 | 0.284

Row | Cell Line | relative viability
18 | SK-LU-1 | 0.445
19 | NCI-H1395 | 0.408
20 | 201T | 0.399
21 | NCI-H1915 | 0.327
22 | HCC-827 | 0.37
23 | LXF-289 | 0.518
24 | NCI-H23 | 0.794
25 | NCI-H647 | 0.435
26 | CAL-12T | 0.593
27 | NCI-H1651 | 0.32
28 | EPLC-272H | 0.323
29 | NCI-H2228 | 0.358
30 | NCI-H1792 | 0.355
31 | NCI-H1355 | 0.378
32 | NCI-H3122 | 0.42
33 | NCI-H1437 | 0.297
34 | NCI-H1755 | 0.588

Same assay, conditions: first compound 0.253 µM

Row | Cell Line | relative viability
35 | HOP-62 | 0.654
36 | HCC-44 | 0.184
37 | SW 900 | 0.687
38 | LU99A | 0.774
39 | BEN | 0.231
40 | HARA | 0.394
41 | HCC-78 | 0.621
42 | NCI-H322M | 0.716
43 | LCLC-97TM1 | 0.385
44 | NCI-H2009 | 0.402
45 | A-427 | 0.313
46 | NCI-H441 | 0.69
47 | NCI-H661 | 0.281
48 | NCI-H1734 | 0.387
49 | NCI-H460 | 0.521
50 | SK-LU-1 | 0.387

Row | Cell Line | relative viability
51 | NCI-H1395 | 0.46
52 | 201T | 0.408
53 | NCI-H1915 | 0.362
54 | HCC-827 | 0.376
55 | LXF-289 | 0.479
56 | NCI-H23 | 0.789
57 | NCI-H647 | 0.536
58 | CAL-12T | 0.51
59 | NCI-H1651 | 0.316
60 | EPLC-272H | 0.237
61 | NCI-H2228 | 0.221
62 | NCI-H1792 | 0.247
63 | NCI-H1355 | 0.422
64 | NCI-H3122 | 0.349
65 | NCI-H1437 | 0.355
66 | NCI-H1755 | 0.566

Same assay, conditions: first compound 0.8 µM

Row | Cell Line | relative viability
67 | NCI-H2405 | 0.382
68 | HOP-62 | 0.672
69 | SW 900 | 0.439
70 | LU99A | 0.706
71 | BEN | 0.268
72 | HARA | 0.512
73 | HCC-78 | 0.809
74 | NCI-H322M | 0.728
75 | LCLC-97TM1 | 0.44
76 | NCI-H2009 | 0.53
77 | A-427 | 0.341
78 | NCI-H441 | 0.928
79 | NCI-H661 | 0.264
80 | NCI-H1734 | 0.343
81 | NCI-H460 | 0.548
82 | NCI-H2347 | 0.376

Row | Cell Line | relative viability
83 | SK-LU-1 | 0.456
84 | NCI-H1395 | 0.397
85 | 201T | 0.423
86 | NCI-H1915 | 0.387
87 | HCC-827 | 0.38
88 | LXF-289 | 0.527
89 | NCI-H23 | 0.844
90 | NCI-H647 | 0.46
91 | CAL-12T | 0.56
92 | NCI-H1651 | 0.335
93 | EPLC-272H | 0.268
94 | NCI-H2228 | 0.225
95 | NCI-H1355 | 0.358
96 | NCI-H3122 | 0.398
97 | NCI-H1437 | 0.343
98 | NCI-H1755 | 0.556

Same assay, conditions: first compound 2.53 µM

Row | Cell Line | relative viability
99 | NCI-H2405 | 0.342
100 | HOP-62 | 0.657
101 | HCC-44 | 0.145
102 | SW 900 | 0.47
103 | LU99A | 0.82
104 | BEN | 0.288
105 | HARA | 0.509
106 | HCC-78 | 0.723
107 | NCI-H322M | 0.715
108 | LCLC-97TM1 | 0.423
109 | NCI-H2009 | 0.454
110 | A-427 | 0.335
111 | NCI-H441 | 0.686
112 | NCI-H661 | 0.274
113 | NCI-H1734 | 0.377
114 | NCI-H460 | 0.54
115 | NCI-H2347 | 0.5

Row | Cell Line | relative viability
116 | SK-LU-1 | 0.49
117 | NCI-H1395 | 0.408
118 | 201T | 0.437
119 | NCI-H1915 | 0.354
120 | HCC-827 | 0.367
121 | LXF-289 | 0.457
122 | NCI-H23 | 0.767
123 | NCI-H647 | 0.467
124 | CAL-12T | 0.546
125 | NCI-H1651 | 0.355
126 | EPLC-272H | 0.274
127 | NCI-H2228 | 0.348
128 | NCI-H1792 | 0.352
129 | NCI-H1355 | 0.431
130 | NCI-H3122 | 0.334
131 | NCI-H1437 | 0.287
132 | NCI-H1755 | 0.581

Same assay, conditions: first compound 8 µM

Row | Cell Line | relative viability
133 | NCI-H2405 | 0.42
134 | HOP-62 | 0.665
135 | HCC-44 | 0.151
136 | SW 900 | 0.586
137 | LU99A | 0.921
138 | BEN | 0.306
139 | HARA | 0.477
140 | HCC-78 | 0.716
141 | NCI-H322M | 0.708
142 | LCLC-97TM1 | 0.426
143 | NCI-H2009 | 0.549
144 | A-427 | 0.414
145 | NCI-H441 | 0.848
146 | NCI-H661 | 0.276
147 | NCI-H1734 | 0.354
148 | NCI-H460 | 0.491

Row | Cell Line | relative viability
149 | NCI-H2347 | 0.441
150 | SK-LU-1 | 0.5
151 | NCI-H1395 | 0.415
152 | 201T | 0.493
153 | NCI-H1915 | 0.398
154 | HCC-827 | 0.401
155 | LXF-289 | 0.51
156 | NCI-H23 | 0.76
157 | NCI-H647 | 0.457
158 | CAL-12T | 0.542
159 | NCI-H1651 | 0.421
160 | EPLC-272H | 0.31
161 | NCI-H2228 | 0.24
162 | NCI-H1792 | 0.24
163 | NCI-H1355 | 0.449
